Laboratory results as given in US20240148809A1, “CANNABIS PREVENTS NK IN[…] CANCER AND INCREASES NK FUNCTION” (The Regents of the University of California, priority 2020, published 2024).

Assays:
[1] = test system: PBMCs (IFN-γ); assay: ELISPOT for IFN-γ spots in PBMCs of breast cancer patient P38/P77 treated with CBD; type: in vivo, human; conditions: in words
Protocol: FIG. 10A-FIG. 10B show results of an enzyme-linked immunospot (ELISPOT) assay that was conducted to determine the numbers of IFN-γ spots representing the number of cells expressing IFN-γ. Treated (IL2, IL2+antiCD16, IL2+antiCD3/28) and untreated PMBC cells of a breast cancer patient P38 (who was treated with CBD) compared to two healthy control subjects, H43 and H44 (FIG. 10A). Treated (IL2, IL2+antiCD16, IL2+antiCD3/28) and untreated PMBC cells of a breast cancer patient P77 VB (who was treated with CBD) compared to a healthy control subject, H74 (FIG. 10B).
80 μl of anti-human IFN-γ capture antibody was added to each well of a 96-well high-protein-binding PVDF filter plate and incubated overnight at 4° C. The plate was washed with […] of PBS once before adding samples into the plate. 50,000 cells in 200 μl of RPMI were added into each well and incubate at 37° C., 5% CO2 overnight. After incubation, the plate was washed twice with 200 μl PBS followed by 0.05% 200 μl Tween-PBS twice. […] of anti-human IFN-γ detection antibody was added into each well and incubated at room temperature for 2 hours and the plate was washed three times with 200 μI/well of 0.05% Tween-PBS. 80 μI/well of tertiary solution which was made from 1:1000 diluted Strep-AP was added in the plate and incubated for 30 minutes. […]

[2] = test system: NK cells in PBMCs (cytotoxicity against OSCSCs); assay: 51Cr release assay with PBMCs of treated hu-BLT mice against OSCSCs; type: in vivo; conditions: IP for 27 days, PBMCs treated with IL-2 overnight, in words
Protocol: (§1) PBMCs (FIG. 11A and FIG. 11B) and CD3+ T cells (FIG. 11C) were isolated from hu-BLT mice after treatment of WIN 55,212-2 (intraperitoneal (IP) injection every 2 days at 2 mg/Kg in DMSO+saline for 27 days before sacrifice) or IL-15 (IP injection of 5 μg per mice for 27 days). PBMCs were isolated from peripheral blood and treated with IL-2 (1000 u/ml) overnight before they were used in 51 Cr release assay. The Lytic units (LU) 30/10^6 cells were determined by plotting the % cytotoxicity obtained at different effector to target ratios, and using that curve to determine the inverse number of NK cells required to lyse 30% of OSCSCs×100. The numbers of LU were then adjusted based on the % of NK cells obtained by flow cytometric analysis (FIG. 11A). PBMCs and CD3+ T cells culture supernatants were collected and IFN-γ secretions were determined using ELISA (FIG. 11B and FIG. 11C). CD3 T cells were isolated from splenocytes by negative selection of CD3+ T cells using an isolation kit (Stem cell technologies).

[3] = test system: CD3+ T cells (IFN-γ); assay: IFN-γ ELISA of culture supernatants of CD3+ T cells from splenocytes of treated hu-BLT mice; type: in vivo; conditions: IP for 27 days, in words
Protocol: as §1

[4] = test system: Oral Squamous Carcinoma Stem Cells (OSCSCs); assay: Cell death assay in OSCSCs (loss of forward scatter and propidium iodide staining, flow cytometry); type: cell-based, human; conditions: for % PI: propidium iodide staining / % of decrease in FS: Percent of cells that lost FS in total population of tumor cells: overnight
Protocol: (§2) Oral Squamous Carcinoma Cells (OSCCs) and stem-like Oral Squamous Carcinoma Stem Cells (OSCSCs) were isolated from tumors of oral cancer patients at UCLA, and cultured in RPMI 1640 supplemented with 10% FBS (Gemini Bio-Products, CA, USA), 1.4% antibiotic antimycotic, 1% sodium pyruvate, 1.4% non-essential amino acids, 1% L-glutamine, 0.2% gentamicin (Gemini Bio-Products, CA, USA), and 0.15% sodium bicarbonate (Fisher Scientific, PA, USA).
(§3) OSCCs and OSCSCs were treated with different concentrations of Win55,2122-2 and cis-diamminedichloridoplatinum (II) (CDDP) as shown in FIGS. 1A-1B, FIG. 2 and Tables 1 and 2, and cultured overnight at 37 C in 5% CO2.
(§4) After an overnight incubation the cells were washed twice and stained with Propidium iodide at a concentration of […], as described by Jewett, A., et al., J Immunol, 1997. 159(10): p. 4815-22; Jewett, A. and B. Bonavida, J Clin Immunol, 1995. 15(1): p. 35-44; and Jewett, A. and B. Bonavida, J Immunol, 1996. 156(3): p. 907-15, each of which is incorporated herein by reference in its entirety.
(§5) Flow cytometric analysis was performed using Attune flow cytometer. Briefly, cells were analyzed based on Forward angle light scatter (FS) and Side scatter (SS), and the proportions of cells that had lost FS and became small were determined in total populations of tumor cells. Untreated and DMSO treated tumors were used as controls. In addition, the proportions of cells that were stained with PI were also determined.
OSCSCs are stem like oral squamous carcinoma cells; OSCSCs were treated with different concentrations of Win55,2122-2, as indicated in FIG. 2 and Table 2.

[5] = test system: Oral Squamous Carcinoma Cells (OSCCs); assay: Cell death assay in OSCCs (loss of forward scatter and propidium iodide staining, flow cytometry); type: cell-based, human; conditions: for % PI: Percent cell death induced in total population of tumor cells, as visualized by PI / % decrease in FS: Percent of cells that lost FS in total population of tumor cells: OSCC, overnight
Protocol: as §2, §3, §4, §5
OSCCs are differentiated oral squamous carcinoma cells; OSCCs were treated with different concentrations of Win55,2122-2, as indicated in FIGS. 1A-1B and Table 1.

[6] = test system: PBMCs (IFN-γ); assay: IFN-γ ELISA of PBMC culture supernatants of treated hu-BLT mice; type: in vivo; conditions: IP for 27 days, in words
Protocol: as §1

C=C(C)[C@@H]1CCC(C)=C[C@H]1c1c(O)cc(CCCCC)cc1O [CBD, Cannabidiol]
PBMC expression of IFN-γ (ELISPOT) compared to healthy control [1]: Comparable

CS(=O)(=O)O.Cc1c(C(=O)c2cccc3ccccc23)c2cccc3c2n1[C@H](CN1CCOCC1)CO3 [Win55,2122-2, (R)-(+)-[2,3-Dihydro-5-methyl-3-(4-morpholinylmethyl)pyrrolo[1,2,3-de]-1,4-benzoxazin-6-yl]-1-naphthalenylmethanone mesylate]
NK cell mediated cytotoxicity in PBMC [2]: higher
IFN-γ secretion in CD3+ T cells [3]: higher
% PI: propidium iodide staining ([4]; 5 μM): 11.5%
% of decrease in FS: Percent of cells that lost FS in total population of tumor cells ([4]; 5 μM): 15%
% PI: propidium iodide staining ([4]; 25 μM): 26.3%
% of decrease in FS: Percent of cells that lost FS in total population of tumor cells ([4]; 25 μM): 24%
% PI: propidium iodide staining ([4]; 50 μM): 21.7%
% of decrease in FS: Percent of cells that lost FS in total population of tumor cells ([4]; 50 μM): 16%
cell death by staining with PI ([4]; compared to untreated or DMSO treated tumors, in words): no or moderate levels of cell death
change of FS ([4]; even at the higher concentrations, in words): did not change FS
% PI: Percent cell death induced in total population of tumor cells, as visualized by PI ([5]; 5 μM): 23.1%
% decrease in FS: Percent of cells that lost FS in total population of tumor cells ([5]; 5 μM): 52%
% PI: Percent cell death induced in total population of tumor cells, as visualized by PI ([5]; 25 μM): 32.9%
% decrease in FS: Percent of cells that lost FS in total population of tumor cells ([5]; 25 μM): 75%
% PI: Percent cell death induced in total population of tumor cells, as visualized by PI ([5]; 50 μM): 51.6%
% decrease in FS: Percent of cells that lost FS in total population of tumor cells ([5]; 50 μM): 78%
% PI: Percent cell death induced in total population of tumor cells, as visualized by PI ([5]; 100 μM): 51.6%
% decrease in FS: Percent of cells that lost FS in total population of tumor cells ([5]; 100 μM): 77%
induction of cell death in differentiated oral tumors ([5]; OSCCs, in words): potent inducer of cell death
IFN-γ secretion in PBMC [6]: higher

IL-15: IL-15, IP injection of 5 μg per mice for 27 days in hu-BLT mice
NK cell mediated cytotoxicity in PBMC [2]: higher
IFN-γ secretion in CD3+ T cells [3]: higher

N.N.[Cl][Pt][Cl] [CDDP, cis-diamminedichloridoplatinum (II)]
% PI: Percent cell death induced in total population of tumor cells, as visualized by PI ([5]; 30 μg/ml): 23.8%
% decrease in FS: Percent of cells that lost FS in total population of tumor cells ([5]; 30 μg/ml): 51%
% PI: Percent cell death induced in total population of tumor cells, as visualized by PI ([5]; 50 μg/ml): 18.9%
% decrease in FS: Percent of cells that lost FS in total population of tumor cells ([5]; 50 μg/ml): 53%
